# Data reported in patent US4352804A, “Oxime ethers, their preparation and pharmaceutical compositions containing them” (ACF Chemiefarma NV, priority 1978, dated 1982).
# Counter-ions that a name gives are not always drawn. Like-named read-outs stand apart in the source and are kept apart here.
# Tests used:
# [1] = J. Pharm. Sci. 58, 138-141 (1969); cited from earlier work
# [2] = system: Gastric Secretion, in the Pyloric Ligated Rat; experiment: Effects on gastric secretion in the pyloric ligated rat (Shay method); type: in vivo; settings: intraduodenal, Table 1, 100 mg/kg i.d., 3 hours, mean of a number of experiments vs vehicle control
# Method: 1. Effects on Gastric Secretion, in the Pyloric Ligated Rat.
# The method as described by Shay et al. (Gastroenterol. 26, 906 (1945)) was used. After overnight starvation, the pylorus was ligated under halothane anaesthesia, and the compound under test or vehicle only administered intraduodenally and the rats allowed to recover. They were sacrificed three hours later and the gastric juice removed. After measurement of the volume of secretion, its hydrogen ion concentration [H^+ ] was determined by titration with 0.05 n NaOH to pH 7. Groups of 4-6 animals were used for each treatment and the inhibitory effects of the compound were ascertained by comparison of the mean values obtained with those from a simultaneously set up control group of animals which received vehicle only. Students `t` test was applied for significance between groups. The mean values for % inhibition obtained for a number of experiments are shown in the following Table 1, the dosage being 100 mg/kg i.d.
# [3] = system: indomethacin induced gastric damage in the rat; experiment: Anti-ulcer activity: inhibition of indomethacin induced gastric damage; type: in vivo; settings: po, 5 h, Table 2, *50 mg/kg orally, 30 min prior to and 2 h after indomethacin 15 mg/kg s.c.
# [4] = system: indomethacin induced gastric damage in the rat; experiment: as above; type: in vivo; settings: po, 5 h, Table 2, 100 mg/kg orally, 30 min prior to and 2 h after indomethacin 15 mg/kg s.c.
# Method: This was assessed by the inhibition of indomethacin induced gastric damage in the rat according to the method of Elegbe (Israeli J. Med. Sci. 10, 1451 (1974)).
# Rats were starved overnight, given indomethacin subcutaneously (15 mg/kg) and sacrificed 5 hours later. Stomachs were inflated with 0.9% saline, cut along the greater curvature, pinned out and scored for gastric damage by the following system:
# Score 1-3 according to the degree of erythema and slight haemorrhage.
# Score 4-6 according to the degree of mucosal erosion.
# Score 7-9 according to the depth of gastric damage. Groups of 7 rats were used for each treatment level of the compound under test and a similar group receiving vehicle only was set up on each occasion of testing. Compound or vehicle was administered orally 30 minutes prior to, and at 2 hours after, dosing with indomethacin. Mean values per treatment were obtained using the above scoring system and the Mann Witney test applied for significance between such values. The mean inhibition of gastric damage from a number of experiments is shown in the following Table 2; the dosage being 100 mg/kg orally.
# [5] = Farmaco, Ed. Sci. 19, 668-702 (1964); cited from earlier work
# [6] = read-out: % Inhibition, Volume (of gastric secretion)
# [7] = read-out: % Inhibition, [H^+ ] (hydrogen ion concentration of gastric juice)
Molecule,"inhibition in vivo at 100 mg/kg [2, 6]","inhibition in vivo at 100 mg/kg [2, 7]",inhibition in vivo at 100 mg/kg [4],also measured
"COc1ccc(C(=NOCCN(C)C)c2cccs2)cc1 [4-methoxyphenyl 2-thienyl ketone, O-dimethylaminoethyl oxime]",–,–,–,effective dose versus toxic dose [1]: the effective dose was very close to the toxic dose
"CO/N=C(/c1ccccc1)c1cnccn1 [Compound 1, Phenyl pyrazinyl ketone, O-methyl oxime]",77%,23%,–,inhibition in vivo at 50 mg/kg [3]: 74%
"CO/N=C(/c1ccc(Cl)cc1)c1cnccn1 [Compound 2, 4-chlorophenyl pyrazinyl ketone, O-methyl oxime]",68%,21%,68%,–
"CO/N=C(/c1ccc(F)cc1)c1cnccn1 [Compound 7, 4-fluorophenyl pyrazinyl ketone, O-methyl oxime]",72%,–,96%,–
"CO/N=C(\c1ccc(F)cc1)c1cnccn1 [Compound 8, 4-fluorophenyl pyrazinyl ketone, O-methyl oxime]",72%,–,96%,–
"CON=C(c1ccccc1)c1c(C)cc2ccccn12 [Compound 9, 2-methyl-3-indolizinyl phenyl ketone, O-methyl oxime]",83%,52%,–,–
"CO/N=C(\c1ccccc1)c1cn2ccccc2n1 [Compound 10, 2-imidazo[1,2-a]pyridinyl phenyl ketone, O-methyl oxime]",66%,23%,–,inhibition in vivo at 50 mg/kg [3]: 89%
"CO/N=C(/c1ccccc1)c1cn2ccccc2n1 [Compound 11, 2-imidazo[1,2-a]pyridinyl phenyl ketone, O-methyl oxime]",77%,–,–,inhibition in vivo at 50 mg/kg [3]: 67%
"CO/N=C(\c1ccccc1)c1cnc2ccccn12 [Compound 12, 3-imidazo[1,2-a]pyridinyl phenyl ketone, O-methyl oxime]",55%,25%,61%,–
"CON=C(c1ccccc1)c1c(C)nc2ccccn12 [Compound 14, 2-methyl-3-imidazo[1,2-a]pyridinyl phenyl ketone, O-methyl oxime.HCl]",59%,23%,78%,–
"CO/N=C(\c1ccccc1)c1ncc[nH]1 [Compound 17, 2-imidazolyl phenyl ketone, O-methyl oxime]",55%,26%,100%,–
"CO/N=C(/c1ccccc1)c1ncc[nH]1 [Compound 18, 2-imidazolyl phenyl ketone, O-methyl oxime]",87%,–,91%,–
"CON=C(c1ccccc1)c1nccn1C [Compound 19, 1-methyl-2-imidazolyl phenyl ketone, O-methyl oxime]",69%,49%,91%,–
"CON=C(c1ccccc1)c1nc2ccccc2[nH]1 [Compound 20, 2-benzimidazolyl phenyl ketone, O-methyl oxime]",–,–,78%,–
"CO/N=C(\c1ccccc1)c1nccs1 [Compound 21, phenyl 2-thiazolyl ketone, O-methyl oxime]",57%,–,89%,–
"CO/N=C(/c1ccccc1)c1nccs1 [Compound 22, phenyl 2-thiazolyl ketone, O-methyl oxime.HBr]",68%,–,78%,–

Molecule,"inhibition in vivo at 100 mg/kg [2, 6]","inhibition in vivo at 100 mg/kg [2, 7]",inhibition in vivo at 100 mg/kg [4],also measured
"CON=C(c1cnccn1)c1ccco1 [Compound 23, 2-furanyl pyrazinyl ketone, O-methyl oxime]",67%,–,98%,–
"N#CCON=C(c1ccccc1)c1cnccn1 [Compound 24, Phenyl pyrazinyl ketone, O-cyanomethyl oxime]",–,–,93%,–
"C=CCON=C(c1ccccc1)c1cnccn1 [Compound 25, phenyl pyrazinyl ketone, O-allyl oxime]",87%,27%,56%,–
"C#CCON=C(c1ccccc1)c1cnccn1 [Compound 26, phenyl pyrazinyl ketone, O-propargyl oxime]",–,–,53%,–
"CN(C)CCCON=C(c1ccccc1)c1cnccn1 [Compound 27, phenyl pyrazinyl ketone, O-3-N,N-dimethylaminopropyl oxime.1 maleic acid]",67%,49%,92%,–
"CN(C)CCON=C(c1ccccc1)c1cnccn1 [Compound 28, phenyl pyrazinyl ketone, O-2,N,N-dimethylaminoethyl oxime.1 maleic acid]",56%,59%,–,–
"CN(C)CCCON=C(c1ccccc1)c1cnc2ccccn12 [Compound 29, 3-imidazo[1,2-a]pyridinyl phenyl ketone, O-3-N,N-dimethylaminopropyl oxime.1/2 fumaric acid]",–,–,75%,–
"CN(C)CCCON=C(c1ccccc1)c1ccc2ccccc2n1 [Compound 30, phenyl 2-quinolinyl ketone, O-3-N,N-dimethylaminopropyl oxime.1 fumaric acid]",72%,37%,79%,–
"CN(C)CCCON=C(c1ccccc1)c1ncc[nH]1 [Compound 31, 2-imidazolyl phenyl ketone, O-3-N,N-dimethylaminopropyl oxime]",80%,72%,56%,–
"CN(C)CCCON=C(c1ccccc1)c1nccn1C [Compound 32, 1-methyl-2-imidazolyl phenyl ketone, O-3-N,N-dimethylaminopropyl oxime]",83%,41%,–,–
"CN(C)CCCON=C(c1ccccc1)c1nc2ccccc2s1 [Compound 33, 2-benzothiazolyl phenyl ketone, O-3-N,N-dimethylaminopropyl oxime.1 fumaric acid]",55%,38%,62%,–
"CN(C)CCCO/N=C(\c1ccccc1)c1nccs1 [Compound 34, phenyl 2-thiazolyl ketone, O-3-N,N-dimethylaminopropyl oxime.1 fumaric acid]",82%,42%,–,–
"CN(C)CCON=C(Cc1ccccn1)c1ccccc1 [phenyl 2-picolinyl ketone, O-dimethylaminoethyl oxime]",–,–,–,anti-androgenic activity [1]: showed anti-androgenic activity; effective dose versus toxic dose [1]: the effective dose was very close to the toxic dose
"C[N+](C)(C)CCON=C(c1ccccc1)c1ccccn1 [phenyl 2-pyridinyl ketone, O-dimethylaminoethyl oxime methiodide]",–,–,–,acetylcholine antagonistic activity [5]: showed acetylcholine antagonistic activity
"phenyl 2-pyridinyl ketone, O-di(m)ethylaminoethyl oxime",–,–,–,anti-androgenic activity [1]: showed anti-androgenic activity; effective dose versus toxic dose [1]: the effective dose was very close to the toxic dose
